Measured values as given in the CheMixHub drug solubility set.

Assay: xn = mol fraction of the nth substance listed, in the solute-free solvent

Nc1ncc(Br)nc1Br + CC(C)O + O
solubility (g/100 g solution)
Conditions	278.15 K	283.15 K	288.15 K	293.15 K	298.15 K	303.15 K	308.15 K	313.15 K	318.15 K	323.15 K
x2 = 0.03225	0.0151	0.0182	0.0212	0.0248	0.0285	0.032	0.0361	0.0405	0.0448	0.0495
x2 = 0.06974	0.0399	0.0475	0.0548	0.0636	0.0724	0.0809	0.0905	0.101	0.111	0.122
x2 = 0.1139	0.0745	0.0882	0.101	0.117	0.133	0.148	0.165	0.183	0.202	0.221
x2 = 0.1666	0.109	0.129	0.148	0.171	0.194	0.218	0.242	0.269	0.297	0.327
x2 = 0.2307	0.133	0.157	0.181	0.21	0.24	0.273	0.304	0.34	0.377	0.42
x2 = 0.3103	0.153	0.178	0.21	0.244	0.281	0.318	0.358	0.403	0.449	0.5
x2 = 0.4117	0.166	0.198	0.233	0.273	0.312	0.358	0.403	0.453	0.505	0.567
x2 = 0.5454	0.181	0.216	0.255	0.298	0.344	0.398	0.449	0.51	0.573	0.64
x2 = 0.7297	0.197	0.236	0.277	0.324	0.376	0.432	0.496	0.562	0.634	0.721
